The target of data set [1] is T1, Solute carrier family 22 member 1 (Rattus norvegicus, UniProt Q63089).
T1 sequence (Q63089 whole entry): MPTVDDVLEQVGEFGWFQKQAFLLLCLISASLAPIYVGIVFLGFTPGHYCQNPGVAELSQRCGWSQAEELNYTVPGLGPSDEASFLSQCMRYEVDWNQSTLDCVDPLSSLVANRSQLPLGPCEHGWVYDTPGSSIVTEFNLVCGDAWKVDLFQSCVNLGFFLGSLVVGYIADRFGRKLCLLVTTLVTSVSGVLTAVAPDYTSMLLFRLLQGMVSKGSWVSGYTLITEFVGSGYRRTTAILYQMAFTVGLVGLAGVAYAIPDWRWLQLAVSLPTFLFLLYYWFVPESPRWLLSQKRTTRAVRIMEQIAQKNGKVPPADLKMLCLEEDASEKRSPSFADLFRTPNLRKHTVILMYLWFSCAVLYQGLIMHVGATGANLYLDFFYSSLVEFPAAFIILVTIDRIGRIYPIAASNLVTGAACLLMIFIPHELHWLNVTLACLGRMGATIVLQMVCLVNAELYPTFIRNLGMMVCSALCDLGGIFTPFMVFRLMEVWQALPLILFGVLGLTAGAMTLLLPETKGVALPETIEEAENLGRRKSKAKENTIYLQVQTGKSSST
The experiment in a line: TP_TRANSPORTER: uptake (electrogenesis) in Xenopus laevis oocytes. In kind it is functional, cell-based. The following applies: oocyte.

Substrate in data set [2]: CNC(=O)c1cccnc1
The experiment in a line: (§1) TP_TRANSPORTER: uptake in Xenopus laevis oocytes. In kind it is functional, cell-based, Oocyte.

Substrate in data set [3]: C[n+]1ccc(-c2ccccc2)cc1
The description is as §1. The class given is functional, cell-based, Oocyte.

Substrate in data set [4]: CC[N+](CC)(CC)CC
The experiment in a line: cells, lysate or membranes named.

A word on the Km: it is the concentration of substrate that gives half-maximal velocity.

Turning to `CC[n+]1c(CC2C=C(C)N=C(c3ccccc3)N2C)ccc2ccccc21.[Cl-]` (configuration not stated) [Cyanine-863], the Activity result in data set [1] was “substrate [+]”.

For the molecule `CC(=O)O[C@H]1C[C@@H]2CC[C@@H]3[C@H](CC[C@@]4(C)[C@H]3C[C@H]([N+]3(C)CCCCC3)[C@@H]4OC(C)=O)[C@@]2(C)C[C@@H]1[N+]1(C)CCCCC1` [PANCURONIUM], the Activity result in data set [1] was “substrate [+]”. Regarding `NCCCCNCCCN` [SPERMIDINE], the Activity result in data set [1] was “substrate [+]”. For `NCCCNCCCCNCCCN` [SPERMINE], the Activity entry in data set [1] is “substrate [+]”.

B1: Solute carrier family 22 member 1 (Rattus norvegicus) (protein)
chain: T1 sequence (Q63089 whole entry)
With B1, the Km was determined as 340 µM in data set [2], 9.6 µM in data set [3] and 35 µM in data set [4].
